Values joined by “and” are separate entries in the source; they are usually repeats but may differ in a detail not shown here. Equal values may be shown once. Some results are limits rather than exact numbers.

From PubChem BioAssay AID2060625 (Molecular Pharmacology Branch, DTP, NCI, 2025) come the findings set out here.

In the assay the test system is 186277-243-T-J2-PDC spheroids with HUVEC/MSC, viability. As to the kind of experiment: Anticancer human tumor 186277-243-T-J2-PDC patient-derived colon adenocarcinoma cell line growth inhibition [CLK]. As to conditions: for viability, T/C: stronger effect = lower value; for IC50: curve of compound. From the text:
A high-throughput screen of multi-cell type tumor spheroids was designed to identify active combinations of […] and targeted small molecules. Complex spheroids include a stromal component modeled by human endothelial cells (HUVEC) and fibroblasts modeled by human mesenchymal stem cells (MSCs). The concentration ranges selected for each drug and investigational agent were based upon clinically achievable concentrations if the clinical Cmax of the agent was known.
Compounds. The drugs and investigational agents: cirtuvivint (SM08502; NSC835563), CC-671 (NSC850746), vemurafenib (NSC761431), tapotoclax (NSC804041), sotorasib (NSC818433), adagrasib (NSC831453), MRTX-1133 (NSC836407), BAY2416964 (NSC825713), copanlisib (NSC816437), inavolisib (NSC800729), abemaciclib (NSC768073), osimertinib (NSC779217), entinostat (NSC756642), eltanexor (KPT-8602, NSC794443), venetoclax (NSC766270), ceralasertib (NSC777638), bortezomib (NSC756655), olaparib (NSC753686), talazoparib (NSC767125), alisertib (NSC759677), peposertib (NSC802822), gemcitabine (NSC613327), 5-fluorouracil (NSC19893), SN-38 (NSC673596), oxaliplatin (NSC266046), paclitaxel (NSC125973), and doxorubicin (NSC123127), were obtained from the National Cancer Institute (NCI) Developmental Therapeutics Program Chemical Repository. The FDA-approved anticancer drug set is available from the Developmental Therapeutics Program at https://dtp.cancer.gov/organization/dscb/obtaining/available plates.htm. […] The stock solutions were prepared in dimethyl sulfoxide (DMSO, Sigma-Aldrich, St. Louis, MO, cat. D2650), except for the platinum complexes which were prepared in saline (Quality Biological, Gaithersburg, MD, cat. 114-055-101), at 800-fold the tested concentration and stored at -70 degrees C prior to their use. All drugs and investigational agents were tested over a range starting from a high concentration at or near the clinical Cmax and decreasing in half-log increments. If the clinical Cmax for an agent had not been determined, the highest concentration tested was 10 microM.
Cell Culture. All cells were maintained in an incubator at 37 degrees C and 5% CO2 with 95% humidity. The PDC lines were cultured according to standard operating procedures established by the NCI PDMR. Briefly, all PDCs were thawed and cultured in Matrigel-coated flasks prepared with a working solution of 1X Ham's F-12 nutrient mix, without supplementation (Invitrogen, Waltham, MA, cat. 11765054), 100 U/mL penicillin-streptomycin (Invitrogen, cat. 15140122), and 2.5% Matrigel (Corning Inc., Corning, NY, cat. 354248) for the first three passages. The 947758-054-R-J2-PDC line was cultured in 6B/Colon 1A media, which includes advanced DMEM/F-12 (Thermo Fisher Scientific, cat. 12634028), 10 mM HEPES (Thermo Fisher Scientific, cat. 15630080), 1X GlutaMAX supplement (Thermo Fisher Scientific, cat. 35050061), 0.1 mg/mL primocin (InvivoGen, cat. ant-pm-2), 10% defined fetal bovine serum, heat inactivated (HyClone Laboratories Inc., cat. SH30070.03HI), 1.25 mM N-Acetyl-L-cysteine (Sigma-Aldrich, cat. A9165), 10 mM nicotinamide (Sigma-Aldrich, cat. N0636), 1X B-27 supplement (Thermo Fisher Scientific, cat. 17504044), 1X N-2 supplement (Thermo Fisher Scientific, cat. 17502048), and 10 microM Y-27632 dihydrochloride (Tocris Bioscience, cat. 1254). The 876862-298-R-J1-PDC was cultured in 6E media, which includes all 6B/Colon 1A media components plus 50% L-WRN conditioned media (ATCC, cat. CRL-3276), 50 ng/mL recombinant human EGF recombinant protein (hEGF; Thermo Fisher Scientific, cat. PHG0311), 10 ng/mL recombinant human fibroblast growth factor 10 (hGFG-10; PeproTech, cat. 100-26), 1 ng/mL recombinant human fibroblast growth factor 2 (hFGF-2; PeproTech, cat. 100-18B), and 1 µM prostaglandin E2 (PGE2; Tocris, cat. 2296). The 227483-062-R1-J1-PDC line was cultured in Panc media, containing all 6E components except hFGF-2, with the addition of 500 nM SB-431542 (Selleckchem, cat. S1067) and 10 nM gastrin (Tocris, cat. 3006). […]
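Note: compound exposure lasted seven days before readout.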
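Throughout, for viability, T/C: 100% = DMSO vehicle control wells.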

The term viability, T/C denotes the result in the treated group divided by that in the control group, in per cent. What is called IC50 is the concentration that gives 50% inhibition. Consider `C#Cc1c(F)ccc2cc(O)cc(-c3ncc4c(N5CC6CCC(C5)N6)nc(OCC56CCCN5CC(F)C6)nc4c3F)c12` (configuration not stated), for which the IC50 is 538 nM and 1440 nM. For the same compound, for the setting “compound 0.0316 µM”, the viability, T/C was 95.5% and 101%. For the same compound, under “compound 0.1 µM”, the viability, T/C is 73.5% and 89.7%. Moreover, the viability, T/C (compound 0.316 µM) is 69.2% and 120%. For the same compound, the viability, T/C (compound 1 µM) was 32% and 60%. Further, the viability, T/C (compound 3.16 µM) was 20.9% and 34.8%. Further, the viability, T/C (compound 10 µM) was 14.7% and 21.7%.

Take `C=C(F)C(=O)N1CCN(c2nc(OCC3CCCN3C)nc3c2CCN(c2cccc4cccc(Cl)c24)C3)CC1CC#N` (configuration not stated): the IC50 was 5270 nM and 7510 nM. Also, the viability, T/C (compound 0.0316 µM) was 79% and 94.1%. For the same compound, the viability, T/C (compound 0.1 µM) is 82.2% and 88.8%. Besides, the viability, T/C (compound 0.316 µM) was 93% and 82.2%. For the same compound, the viability, T/C (compound 1 µM) was 83.4% and 89.4%. Further, under “compound 3.16 µM”, the viability, T/C is 101% and 109%.

For the compound `C=CC(=O)N1CCN(c2nc(=O)n(-c3c(C)ccnc3C(C)C)c3nc(-c4c(O)cccc4F)c(F)cc23)C(C)C1` (configuration not stated), the IC50 is > 10000 nM. Moreover, the viability, T/C (compound 0.0316 µM) is 103% and 87.6%. Also, under “compound 0.1 µM”, the viability, T/C was 91.4% and 96.3%. Also, the viability, T/C (compound 0.316 µM) is 97.5% and 90.2%. Further, the viability, T/C (compound 1 µM) was 80.2% and 105%. Besides, for the setting “compound 3.16 µM”, the viability, T/C is 107% and 105%. In addition, the viability, T/C (compound 10 µM) was 95.2% and 98.2%.

As for `C=CC(=O)Nc1cc(Nc2nccc(-c3cn(C)c4ccccc34)n2)c(OC)cc1N(C)CCN(C)C`, the IC50 was > 300 nM. In addition, the viability, T/C (compound 0.000949 µM) was 84.2% and 100%. In addition, where the note is “compound 0.003 µM”, the viability, T/C was 98.2% and 101%. For the same compound, the viability, T/C (compound 0.00949 µM) was 84.3% and 112%. Moreover, where the note is “compound 0.03 µM”, the viability, T/C is 82.3% and 97.6%. Further, the viability, T/C (compound 0.0949 µM) is 83.6% and 116%. Besides, the viability, T/C (compound 0.3 µM) was 87.2% and 95.1%.

For `CC(C)CC(NC(=O)C(Cc1ccccc1)NC(=O)c1cnccn1)B(O)O` (configuration not stated), the IC50 is 4.44 nM and 3.22 nM. For the same compound, the viability, T/C (compound 0.000949 µM) was 95.9% and 106%. In addition, the viability, T/C (compound 0.003 µM) was 75.5% and 53.2%. Besides, the viability, T/C (compound 0.00949 µM) was 0.47% and 2.37%. Under “compound 0.03 µM”, the viability, T/C is 0.24% and 0.94%. Moreover, the viability, T/C (compound 0.0949 µM) was 0.79% and 3.7%. The viability, T/C (compound 0.3 µM) was 0.71% and 0.52%.

Consider `CC(CO)NC(=O)c1cc(-c2ccc(Cl)cc2)nn(-c2cnn(C)c2)c1=O` (configuration not stated), for which the IC50 was > 10000 nM. In addition, the viability, T/C (compound 0.0316 µM) is 84.6% and 120%. In addition, under “compound 0.1 µM”, the viability, T/C is 80.5% and 91.3%. For the same compound, the viability, T/C (compound 0.316 µM) is 95.9% and 96.8%. The viability, T/C (compound 1 µM) was 81% and 88.2%. Besides, the viability, T/C (compound 3.16 µM) is 87.7% and 101%. Moreover, the viability, T/C (compound 10 µM) is 115% and 117%.

Consider `CC(Nc1ccc2c(c1)OCCn1cc(N3C(=O)OCC3C(F)F)nc1-2)C(N)=O` (configuration not stated), for which the IC50 is > 10000 nM and 2380 nM. Besides, the viability, T/C (compound 0.0316 µM) was 96.2%. For the setting “compound 0.1 µM”, the viability, T/C is 103% and 104%. Also, under “compound 0.316 µM”, the viability, T/C is 80% and 80.6%. For the same compound, the viability, T/C (compound 1 µM) is 65.2% and 58.1%. The viability, T/C (compound 3.16 µM) is 58.7% and 53.7%. For the setting “compound 10 µM”, the viability, T/C is 49.9% and 37.6%.

As to `CC1(C)CCC(CN2CCN(c3ccc(C(=O)NS(=O)(=O)c4ccc(NCC5CCOCC5)c([N+](=O)[O-])c4)c(Oc4cnc5[nH]ccc5c4)c3)CC2)=C(c2ccc(Cl)cc2)C1`, the IC50 is 5800 nM and 5950 nM. For the same compound, the viability, T/C (compound 0.0316 µM) was 94.3% and 88.2%. Moreover, the viability, T/C (compound 0.1 µM) is 85.8% and 90.3%. The viability, T/C (compound 0.316 µM) is 97% and 104%. The viability, T/C (compound 1 µM) is 86.5% and 99.3%. Also, the viability, T/C (compound 3.16 µM) was 106% and 110%. Also, under “compound 10 µM”, the viability, T/C was 10.5% and 10%.

For the compound `CC1COCCN1c1cc(C2(S(C)(=N)=O)CC2)nc(-c2ccnc3[nH]ccc23)n1` (configuration not stated), the IC50 was 2680 nM and 2310 nM. In addition, the viability, T/C (compound 0.0316 µM) was 103% and 82.6%. In addition, the viability, T/C (compound 0.1 µM) was 85.5% and 88%. For the same compound, where the note is “compound 0.316 µM”, the viability, T/C was 96.9% and 95%. Also, the viability, T/C (compound 1 µM) was 122% and 103%. Besides, where the note is “compound 3.16 µM”, the viability, T/C is 41.2% and 34%. Where the note is “compound 10 µM”, the viability, T/C was 15% and 13.5%.
